Data from patent US20240101546A1, “HETEROARYL-ACETYLENES, PHARMACEUTICAL COMPOSITIONS THEREOF, AND THEIR THERAPEUTIC APPLICATIONS” (Eubulus Biotherapeutics Inc., priority 2020, published 2024).

Test system: hepatocellular carcinoma cell line Hub-7
Assay: Cell proliferation assay, Hub-7 (CELL-TITER GLO)
Type: cell-based
Conditions: Hub-7 cells, 24 h incubation, cell viability by CELL-TITER GLO, top concentration 10 μM; read-out: EC50, Inhibition of Hub-7 Cell Proliferation
Procedure, shortened: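 Hub-7 cells, 4,000 per well, seeded overnight, then exposed 24 h to compound from 10 μM top in 3-fold serial dilution. Viability read by CELL-TITER GLO luminescence; EC50 derived and binned into potency categories.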

Row | EC50 [µM] | SMILES
1 | 1 to 5 | C#Cc1nc(NC(=O)NCc2ccc(-c3cc(C(N)=O)cc4c3cnn4C)cc2)cs1 [Compound A20, 4-(4-((3-(2-Ethynylthiazol-4-yl)ureido)methyl)phenyl)-1-methyl-1H-indazole-6-carboxamide]
2 | > 5 | C#Cc1nc(C(=O)N2CCCC(C(=O)OC)C2)cs1 (stereo not shown) [Compound D36, Methyl 1-(2-ethynylthiazole-4-carbonyl)piperidine-3-carboxylate]
3 | 0.2 to 1 | C#Cc1nc(C(=O)NC2CCN(c3ccccc3)CC2)cs1 [Compound C78, 2-Ethynyl-N-(1-phenylpiperidin-4-yl)thiazole-4-carboxamide]
4 | ≤ 0.2 | C#Cc1nc(NC(=O)N2CCC(c3ccc(-c4cccc5ncsc45)cc3)CC2)cs1 [Compound B6, 4-(4-(Benzo[d]thiazol-7-yl)phenyl)-N-(2-ethynylthiazol-4-yl)piperidine-1-carboxamide]
5 | 0.2 to 1 | C#Cc1nc(C(=O)NCCc2ccc(-c3cnn(C)c3)cc2)cs1 [Compound C75, 2-Ethynyl-N-(4-(1-methyl-1H-pyrazol-4-yl)phenethyl)thiazole-4-carboxamide]
6 | ≤ 0.2 | C#Cc1nc(NC(=O)NCc2ccc(-c3cccc4c3cnn4C)cc2)cs1 [Compound A16, 1-(2-Ethynylthiazol-4-yl)-3-(4-(1-methyl-1H-indazol-4-yl)benzyl)urea]
7 | 0.2 to 1 | C#Cc1nc(NC(=O)NCc2ccc(-c3cccc4ncn(C)c(=O)c34)cc2)cs1 [Compound A11, 1-(2-Ethynylthiazol-4-yl)-3-(4-(3-methyl-4-oxo-3,4-dihydroquinazolin-5-yl)-benzyl)urea]
8 | 1 to 5 | C#Cc1nc(C(=O)NCc2ncccc2Cl)cs1 [Compound C109, N-((3-Chloropyridin-2-yl)methyl)-2-ethynylthiazole-4-carboxamide]
9 | 0.2 to 1 | C#Cc1nc(C(=O)NCCc2cccc(-c3cccc4c3CC(=O)N4)c2)cs1 [Compound C27, 2-Ethynyl-N-(3-(2-oxoindolin-4-yl)phenethyl)thiazole-4-carboxamide]
10 | 1 to 5 | C#Cc1nc(C(=O)NCCc2cccc(N)c2)cs1 [Compound C85, N-(3-Aminophenethyl)-2-ethynylthiazole-4-carboxamide]
11 | 0.2 to 1 | C#Cc1nc(NC(=O)NCc2ccc(-c3cccc4ccnc(O)c34)cc2)cs1 [Compound A18, 1-(2-Ethynylthiazol-4-yl)-3-(4-(1-hydroxyisoquinolin-8-yl)benzyl)urea]
12 | 0.2 to 1 | C#Cc1nc(C(=O)NCc2cccc(C#N)c2)cs1 [Compound C127, N-(3-Cyanobenzyl)-2-ethynylthiazole-4-carboxamide]
13 | 1 to 5 | C#Cc1nc(C(=O)NCCc2ccc(NS(C)(=O)=O)cc2)cs1 [Compound C99, 2-Ethynyl-N-(4-(methylsulfonamido)phenethyl)thiazole-4-carboxamide]
14 | 0.2 to 1 | C#Cc1nc(C(=O)NCCc2ccc(-c3cccc4c3CN(C)C4=O)cc2)cs1 [Compound C22, 2-Ethynyl-N-(4-(2-methyl-1-oxoisoindolin-4-yl)phenethyl)thiazole-4-carboxamide]
15 | ≤ 0.2 | C#Cc1nc(C(=O)N2CCN(c3ccc(-c4cccc5nn(C)cc45)cc3)CC2)cs1 [Compound D23, (2-Ethynylthiazol-4-yl)(4-(4-(2-methyl-2H-indazol-4-yl)phenyl)piperazin-1-yl)-methanone]
16 | 1 to 5 | C#Cc1nc(C(=O)NCCc2ccc(-c3cn[nH]c3)cc2)cs1 [Compound C76, N-(4-(1H-Pyrazol-4-yl)phenethyl)-2-ethynylthiazole-4-carboxamide]
17 | 1 to 5 | C#Cc1nc(C(=O)N(CCC(=O)OCC)Cc2ccccc2)cs1 [Compound C116, Ethyl 3-(N-benzyl-2-ethynylthiazole-4-carboxamido)propanoate]

Row | EC50 [µM] | SMILES
18 | ≤ 0.2 | C#Cc1nc(NC(=O)[C@H](N)Cc2ccccc2C#N)cs1 [Compound E5, (R)-2-Amino-3-(2-cyanophenyl)-N-(2-ethynylthiazol-4-yl)propenamide]
19 | 0.2 to 1 | C#Cc1nc(C(=O)NCc2ccc(-c3cccnc3)cc2)cs1 [Compound C93, 2-Ethynyl-N-(4-(pyridin-3-yl)benzyl)thiazole-4-carboxamide]
20 | 1 to 5 | C#Cc1nc(C(=O)NCCc2ccc(-c3ccn(C)n3)cc2)cs1 [Compound C41, 2-Ethynyl-N-(4-(1-methyl-1H-pyrazol-3-yl)phenethyl)thiazole-4-carboxamide]
21 | 0.2 to 1 | C#Cc1nc(NC(=O)NCc2ccc(-c3cc(C(=O)NC)cc4c3cnn4C)cc2)cs1 [Compound A21, 4-(4-((3-(2-Ethynylthiazol-4-yl)ureido)methyl)phenyl)-N,1-dimethyl-1H-indazole-6-carboxamide]
22 | 0.2 to 1 | C#Cc1nc(C(=O)N(C)CCc2ccc([N+](=O)[O-])cc2)cs1 [Compound C100, 2-Ethynyl-N-methyl-N-(4-nitrophenethyl)thiazole-4-carboxamide]
23 | ≤ 0.2 | C#Cc1nc(NC(=O)NCc2ccc(-c3c(C)ccc4c3cnn4C)cc2)cs1 [Compound A15, 1-(4-(1,5-Dimethyl-1H-indazol-4-yl)benzyl)-3-(2-ethynylthiazol-4-yl)urea]
24 | 1 to 5 | C#Cc1nc(C(=O)NCc2ccccc2CO)cs1 [Compound C70, 2-Ethynyl-N-(2-(hydroxymethyl)benzyl)thiazole-4-carboxamide]
25 | 0.2 to 1 | C#Cc1nc(C(=O)NCCc2ccc(-c3ccc4scnc4c3)cc2)cs1 [Compound C25, N-(4-(Benzo[d]thiazol-5-yl)phenethyl)-2-ethynylthiazole-4-carboxamide]
26 | 1 to 5 | C#Cc1nc(NC(=O)c2ccc3ccccc3n2)cs1 [Compound E10, N-(2-Ethynylthiazol-4-yl)quinoline-2-carboxamide]
27 | 0.2 to 1 | C#Cc1nc(C(=O)NCc2ccc(C#N)cc2)cs1 [Compound C104, N-(4-Cyanobenzyl)-2-ethynylthiazole-4-carboxamide]
28 | 0.2 to 1 | C#Cc1nc(C(=O)NCCc2ccc(-c3cccc4c3cnn4C)cc2)cs1 [Compound C33, 2-Ethynyl-N-(4-(1-methyl-1H-indazol-4-yl)phenethyl)thiazole-4-carboxamide]
29 | 0.2 to 1 | C#Cc1nc(NC(=O)Cc2ccccc2)cs1 [Compound C77, N-(2-Ethynylthiazol-4-yl)-2-phenylacetamide]
30 | ≤ 0.2 | C#Cc1nc(C(=O)N2CCN(c3ccc(-c4cc(C(=O)N(C)C)cc5ncsc45)cc3)CC2)cs1 [Compound D6, 7-(4-(4-(2-Ethynylthiazole-4-carbonyl)piperazin-1-yl)phenyl)-N,N-dimethyl-benzo[d]thiazole-5-carboxamide]
31 | 0.2 to 1 | C#Cc1nc(C(=O)NCCc2ccc(-c3ccccc3S(C)(=O)=O)cc2)cs1 [Compound C15, 2-Ethynyl-N-(2-(2′-(methylsulfonyl)-[1,1′-biphenyl]-4-yl)ethyl)thiazole-4-carboxamide]
32 | 0.2 to 1 | C#Cc1nc(C(=O)NCCc2ccc(-c3cccc4ccnc(O)c34)cc2)cs1 [Compound C16, 2-Ethynyl-N-(4-(1-hydroxyisoquinolin-8-yl)phenethyl)thiazole-4-carboxamide]
33 | ≤ 0.2 | C#Cc1nc(C(=O)NCCc2ccc(-c3cccc4cnccc34)cc2)cs1 [Compound C21, 2-Ethynyl-N-(4-(isoquinolin-5-yl)phenethyl)thiazole-4-carboxamide]
34 | 1 to 5 | C#Cc1nc(C(=O)NCCc2cccc(S(C)(=O)=O)c2)cs1 [Compound C105, 2-Ethynyl-N-(3-(methylsulfonyl)phenethyl)thiazole-4-carboxamide]
